Measured values taken from patent US20060116392A1, “Methods for treating anxiety disorders and related article of manufacture” (priority 2004, published 2006).

What was measured:
morphine CPP [1] = assay: Induction of morphine conditioned place preference (CPP); inhibitor given after conditioning; assay type: in vivo, Long Evans rats; conditions: for CPP score (time spent in drug associated-chamber), mean±SEM: single s.c. dose at end of four-day conditioning, anisomycin and cycloheximide groups combined; for effect on morphine CPP: single s.c. dose at the end of four-day conditioning, tested at 24 hours
Protocol: . CPP was tested after 24 hours. To determine whether the effect was stable, the animals were retested 1 week later.
(§1) Because both anisomycin and cycloheximide produced a similar effect, the CPP score of the two groups were combined. […] Further experimentation was needed to determine whether a more extended inhibition of protein synthesis was able to persistently block CPP. Groups of rats were treated as above but received two injections of cycloheximide, one immediately after the last conditioning session and the second 5 hours later. In parallel, the rates of protein synthesis inhibition, over time, following a single or double injection were established. […] With a double injection, 5 hours apart, the rate of protein synthesis inhibition at 6 hours was maintained at 71%. The results after two injections were similar to those after a single injection; in fact, the CPP of rats that received two injection of cycloheximide was inhibited at 24 hours, but recovered a week later (data not shown).
Experimentation was needed to test the possibility that blocking protein synthesis after each daily conditioning produced a stable loss of CPP. Groups of rats received an injection of either cycloheximide or vehicle every day at the end of each conditioning trial and were then tested 24 hours, 1 week and 4 weeks later. […] This inhibition persisted at 1 week (254.8±32.8 sec and 429.4±33.1 sec, respectively, p<0.01) and 4 weeks (243.3±21.8 sec and 416.8±31.4 sec, respectively, p<0.01) post-conditioning (FIG. 1B).
(§2) Adult Long Evans rats (200-250 grams) were used for all the experiments. On day 1, the rats received a single pre-exposure test in a box composed of two distinct compartments (Pre-conditioning). The time spent in each chamber over 10 minutes was recorded (unconditioned preference) and then the animals were returned to their homecages. Animals showing a strong unconditioned preference (>540 s) were discarded. On the subsequent 4 days, place preference conditioning was conducted using an unbiased procedure. In each experimental group, the animals received a subcutaneous injection of either morphine (10 mg/kg) or saline (vehicle solution). Half of both groups were confined for 30 minutes in the spontaneously preferred compartment and the other half in the non-preferred compartment. Testing consisted of allowing the animals free access to both chambers for 10 minutes and recording the amount of time that the animals spend in the conditioned chamber (CPP score). All protocols complied with the N.I.H. Guide for the Care and Use of Laboratory Animals and were approved by the Mount Sinai School of Medicine Animal care Committees.
(§3) Anisomycin and Cycloheximide were injected s.c. at 210 mg/Kg (Milekic and Alberini, 2002) and 2.8 mg/Kg (Squire et al., 1980), respectively. Anisomycin was dissolved as previously described (Milekic and Alberini, 2002). Cycloheximide was dissolved in DMSO and finally diluted in 1% DMSO/saline. Vehicle solutions were prepared accordingly.

morphine CPP [2] = assay: Maintenance of morphine CPP after contextual reactivation (Test 1); inhibitor given after recall; assay type: in vivo, Long Evans rats; conditions: for CPP score, mean±SEM: injection immediately after Test 1 (1 week after conditioning), Test 2, 24 hours later, cycloheximide and anisomycin scores combined; for change in CPP score: injection immediately after Test 1, re-tested 24 hours later (Test 2)
Protocol: The purpose of second set of experiments was to determine whether morphine CPP becomes labile if recalled. Groups of rats were conditioned to morphine for 4 days. […] This test recalled the experience (Test 1), or, in other words, reactivated CPP. Immediately after Test 1, half of the rats received an injection of cycloheximide or anisomycin and half were injected with vehicle. The animals were re-tested 24 hours later (Test 2). […] (Test1-vehicle: 394.4±42.6 sec; Test1-inhibitor: 387.8±25.8 sec; Test2-vehicle 413.3±35.9 sec; Test2-inhibitor 425.9±25.3 sec) (FIG. 2). Because both cycloheximide and anisomycin-treated rats performed similarly, their scores were combined.
as §2, §3

morphine CPP [3] = assay: Consolidated morphine CPP after a single reconditioning session; inhibitor given after reconditioning; assay type: in vivo, Long Evans rats
Text: However, it is important to consider that during morphine CPP, the drug may serve as an internal reinforcer and the animal experiences a strong reward. It remained unknown whether CPP may become labile if the rewarding state of the drug experience is concomitantly reactivated with the contextual cues (reconditioning). Therefore, it was examined whether a previously formed CPP becomes labile after a reconditioning session. Rats were conditioned to morphine for 4 days and, 1 week later, were exposed to another, single conditioning session. Immediately after this session, half of the animals received an injection of inhibitor (cycloheximide or anisomycin) and the other half of vehicle solution and were then all retested 24 hours and 1 week later.
It was then tested whether blocking protein synthesis after reconditioning for a longer time would result in a stable disruption of CPP. Groups of rats were treated as above but received two injections of cycloheximide, one immediately after reconditioning and the second 5 hours later, a protocol that, as described in the first set of experiments, block 70% of protein synthesis for several hours.
as §2, §3

morphine CPP [4] = assay: Morphine CPP, conditioning context omitted (injections in homecage); assay type: in vivo, Long Evans rats
Protocol: (3C) The conditioning context was omitted and rats (n=8) were injected in their home cage with morphine and 30 min later with cycloheximide at the same time point as in (3A) and (3B). CPP was tested 24 hr after injection (post-injection).
(3D) Rats were injected only with cycloheximide (n=9) in the home cage at the same time points as in (3A) and (3B) without receiving either morphine or exposure to the conditioning context. CPP was tested 24 hr after the last injection (post-injection).
To investigate whether the blocking effect of the inhibitors on CPP was context-specific, the conditioning context was omitted, that is morphine and cycloheximide were administered in the homecages at the same times after conditioning.
as §2
Anisomycin and Cycloheximide were injected s.c. at 210 mg/Kg (Milekic and Alberini, 2002) and 2.8 mg/Kg (Squire et al., 1980), respectively. Anisomycin was dissolved as previously described (Milekic and Alberini, 2002). […]

protein synthesis = assay: Inhibition of protein synthesis in brain (L-[35S]methionine incorporation); assay type: in vivo, rats
Protocol: as §1
Inhibition of protein synthesis was assessed according to Rosenblum et al. (1993) with modifications. Rats were injected with 125 μCi L-[^35S]methionine (i.p.) and immediately after received an injection of either protein synthesis inhibitors, (cycloheximide or anisomycin) or vehicle solution. The rats were sacrificed one hour after the last inhibitor injection. The brains were homogenized in 5 volumes of cold lysis buffer (1% SDS, 60 mM Tris.Cl pH 7.4, 62.4 mM imidazole, 40 mM DTT, 10% glycerol). The homogenates were boiled for 5 min and centrifuged at 18,000 g for 20 min at room temperature. Equal amount of proteins were precipitated with 20% TCA and the radioactivity was counted. The inhibition of protein synthesis was calculated as: [1−(CPMinhibitor/CPMvehicle)]×100.

[5] = injection every day at the end of each conditioning trial, 24 hours after conditioning
[6] = single injection immediately after reconditioning, 1 week later, cycloheximide or anisomycin combined
[7] = single injection immediately after reconditioning, 24 hours after reconditioning, cycloheximide or anisomycin combined

## C[C@@H]1C[C@@H]([C@H](O)CC2CC(=O)NC(=O)C2)C(=O)[C@@H](C)C1 [cycloheximide]
Morphine CPP [1]; injection every day at the end of each conditioning trial, 1 week post-conditioning
  CPP score, mean±SEM: 254.8 ± 32.8 s
Morphine CPP [1]; injection every day at the end of each conditioning trial, 4 weeks post-conditioning
  CPP score, mean±SEM: 243.3 ± 21.8 s
Morphine CPP [1]; [5]
  CPP score, mean±SEM: 226.6 ± 47.2 s
  effect on CPP: complete inhibition
Morphine CPP [1]; 24 hours
  CPP score (time spent in drug associated-chamber), mean±SEM: 280.1 ± 17.5 s
Morphine CPP [1]; re-tested 1 week later
  CPP score (time spent in drug associated-chamber), mean±SEM: 358.9 ± 28.0 s
Morphine CPP [1]
  effect on morphine CPP: completely blocked
Morphine CPP [1]; two injections (immediately after last conditioning session and 5 hours later), a week later, data not shown
  effect on CPP: recovered
Morphine CPP [1]; two injections (immediately after last conditioning session and 5 hours later), at 24 hours, data not shown
  effect on CPP: inhibited
Morphine CPP [2]
  CPP score, mean±SEM: 425.9 ± 25.3 s
  change in CPP score: No change
Morphine CPP [3]; double injection (immediately after reconditioning and 5 hours later), 24 hours
  CPP score, mean±SEM: 264.1 ± 13.3 s
Morphine CPP [3]; double injection after reconditioning, 1 week
  CPP score, mean±SEM: 239.9 ± 34.4 s
Morphine CPP [3]; double injection after reconditioning, 2 weeks
  CPP score, mean±SEM: 270.1 ± 27.2 s
Morphine CPP [3]; double injection after reconditioning, 4 weeks
  CPP score, mean±SEM: 278.4 ± 32.5 s
Morphine CPP [3]; double injection after reconditioning, tested 24 hours to 4 weeks
  effect on CPP: completely and persistently blocked
Morphine CPP [3]; [6]
  CPP score, mean±SEM: 365.4 ± 45.1 s
Morphine CPP [3]; [7]
  CPP score, mean±SEM: 261.5 ± 33.9 s
Morphine CPP [4]; morphine and cycloheximide administered in the homecages, conditioning context omitted
  effect on CPP: No blocking effect
Morphine CPP [4]; morphine and cycloheximide administered in the homecages, conditioning context omitted, post-conditioning (24 hr after injection)
  CPP score, mean±SEM: 362.22 ± 17.4 s
Morphine CPP [4]; only the inhibitor in the homecage, morphine and context omitted, post-conditioning (24 hr after last injection)
  CPP score, mean±SEM: 399.8 ± 31.6 s
Protein synthesis; double injection, 5 hours apart, at 6 hours
  inhibition of protein synthesis: 71%
Protein synthesis; single injection, at 1 hour
  inhibition of protein synthesis: 70%
Protein synthesis; single injection, at 6 hours after injection
  inhibition of protein synthesis: 23%
Protein synthesis; two injections, 5 hours apart, for several hours
  protein synthesis blocked: 70%

## COc1ccc(C[C@H]2NC[C@H](O)[C@H]2OC(C)=O)cc1 [anisomycin]
Morphine CPP [1]; 24 hours
  CPP score (time spent in drug associated-chamber), mean±SEM: 280.1 ± 17.5 s
Morphine CPP [1]; re-tested 1 week later
  CPP score (time spent in drug associated-chamber), mean±SEM: 358.9 ± 28.0 s
Morphine CPP [1]
  effect on morphine CPP: completely blocked
Morphine CPP [2]
  CPP score, mean±SEM: 425.9 ± 25.3 s
  change in CPP score: No change
Morphine CPP [3]; [6]
  CPP score, mean±SEM: 365.4 ± 45.1 s
Morphine CPP [3]; [7]
  CPP score, mean±SEM: 261.5 ± 33.9 s
